# Measurements published in patent US20200261605A1, “FUNCTIONALIZED LIPOSOMES FOR IMAGING MISFOLDED PROTEINS” (ALZECA BIOSCIENCES, LLC, priority 2019, published 2020).
# Key:
# [1] = molecular target: α-Synuclein fibrils (Homo sapiens, UniProt P37840); experiment: Binding studies with α-Synuclein fibrils (fluorescence of unbound fraction); details: 5 μM α-Synuclein fibrils, 2 hours incubation; read-out: dissociation constant, Kd
# Method: Different dilutions of Conjugate A liposomes or p-FTAA were added and mixed with 5 μM of α-Synuclein fibrils and incubated for 2 hours. The mixture was centrifuged at 21000 g for 5 mins. The supernatant was removed and assayed for fluorescence of p-FTAA that was unbound to the fibrils. Excitation of 405 nm and emission of 574 nm emission was used. A standard curve from known concentrations of liposomes or pFTAA was made. The bound fraction was calculated as the difference between the total pFTAA or pFTAA-liposomes that was incubated and the unbound fraction. […] A dissociation constant of 3 nM was determined for the p-FTAA molecule (FIG. 7B).
# [2] = molecular target: tau fibrils (phosphorylated tau-441 (2N4R)) (Homo sapiens, UniProt P10636); experiment: Binding studies with tau fibrils (fluorescence, no separation); details: 0.85 μM tau fibrils, 2 hours; Ex 360 nm, Em 535 nm
# Sequence of tau fibrils (phosphorylated tau-441 (2N4R)) (P10636 1-441 isoform P10636-8): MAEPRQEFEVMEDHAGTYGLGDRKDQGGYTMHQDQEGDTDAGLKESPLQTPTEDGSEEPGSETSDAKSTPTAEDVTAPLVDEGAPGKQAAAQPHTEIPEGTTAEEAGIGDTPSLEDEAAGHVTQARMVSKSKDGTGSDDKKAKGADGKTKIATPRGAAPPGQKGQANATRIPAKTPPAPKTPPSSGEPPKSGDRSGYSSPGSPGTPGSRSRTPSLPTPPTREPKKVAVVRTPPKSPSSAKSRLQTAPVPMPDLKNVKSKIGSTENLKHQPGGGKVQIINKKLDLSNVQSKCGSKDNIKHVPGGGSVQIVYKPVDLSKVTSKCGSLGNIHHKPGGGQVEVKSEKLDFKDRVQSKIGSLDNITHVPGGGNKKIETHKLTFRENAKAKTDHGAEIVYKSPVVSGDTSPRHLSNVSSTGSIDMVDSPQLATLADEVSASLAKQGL
# Method: Lyophilized tau-441 (2N4R) was dissolved in buffer containing 40 mM HEPES, 5 mM EGTA, 3 mM MgCl2, pH 7.5. Tau was phosphorylated with GSK-3b in the presence of 2 mM ATP at 30° C. for 40 hours. Tau was used at 30-75 μM concentration, and GSK-3b was used at 0.02-0.08 U/pmol of tau. SDS PAGE gel was run to confirm the phosphorylation of tau (FIG. 8).
# To make fibrils, the phosphorylated tau was reacted with arachidonic acid (ARA). The p-tau was diluted in 10 mM HEPES, 1 mM EDTA, 5 mM DTT and 150 mM NaCl at pH-7.6 to final concentration of 32 μM and ARA at 37 times molar excess of tau was added. The mixture was incubated for 2 days at 37° C. for 2 days. Fresh DTT was supplemented daily. The oligomers formed were used as seeds for fibril formation. 8 μM of tau seeds were used to form fibrils with 30 μM p-tau in 10 mM HEPES, 1 mM EDTA, 5 mM DTT and 150 mM NaCl at pH-7.6. ARA was used at 37 times molar excess over p-tau monomer and incubated at 37° C. for 2 days. Fresh DTT was added every day.
# Different dilutions of p-FTAA molecule were added and mixed with 0.85 μM of tau fibrils and incubated for 2 hours. The mixture was assayed as is without separation of bound and unbound fibrils. Excitation at 360 nm and emission at 535 nm was used for detection of p-FTAA binding to tau fibrils.
smiles,measurement,setting,value
"O=C(O)Cc1cc(-c2ccc(C(=O)O)s2)sc1-c1ccc(-c2sc(-c3ccc(C(=O)O)s3)cc2CC(=O)O)s1 [p-FTAA, pentameric formyl thiophene acetic acid]",Kd,[1],3 nM
same,fluorescence with tau fibrils in comparison to p-FTAA only,[2],increase in fluorescence
